Test results from patent publication US20200207734A1, “HETEROCYCLIC COMPOUND AND USE THEREOF” (Takeda Pharmaceutical Company Limited, priority 2017, published 2020).

How the values were obtained:
[1] = target: T1, human orexin type 2 receptor (Homo sapiens, UniProt O43614); test: Measurement of orexin type 2 receptor agonist activity (calcium fluorescence, CHO cells expressing hOX2R); type: cell-based; conditions: test compound 3 μM; CHO cells expressing human OX2 receptor; DMSO = 0%, orexin A (human) = 100%
T1 construct: human orexin type 2 receptor cDNA was inserted into pcDNA3.1(+) plasmid vector (Invitrogen); expressed in transfected cells
T1 sequence (O43614 1-444): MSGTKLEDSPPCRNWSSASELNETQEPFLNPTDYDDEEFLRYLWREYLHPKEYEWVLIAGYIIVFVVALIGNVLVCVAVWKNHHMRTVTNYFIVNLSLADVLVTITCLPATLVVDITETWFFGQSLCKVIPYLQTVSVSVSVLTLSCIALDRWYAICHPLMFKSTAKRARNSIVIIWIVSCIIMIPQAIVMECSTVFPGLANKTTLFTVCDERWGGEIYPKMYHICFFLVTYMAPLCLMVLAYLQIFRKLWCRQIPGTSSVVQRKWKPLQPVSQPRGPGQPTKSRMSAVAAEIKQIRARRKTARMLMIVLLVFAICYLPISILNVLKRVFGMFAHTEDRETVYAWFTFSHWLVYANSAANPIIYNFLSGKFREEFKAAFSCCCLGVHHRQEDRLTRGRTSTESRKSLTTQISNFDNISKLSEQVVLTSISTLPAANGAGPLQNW
In short: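 CHO-dhfr cells stably expressing hOX2R, loaded with Fluo-4 AM in HBSS/20 mM HEPES/0.1% BSA with probenecid, then given test compound. Calcium fluorescence was read for about 2 min 40 sec. Activity (%) was scaled between DMSO (0%) and 10 nM final human orexin A (100%).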

[2] = tested on: cynomolgus monkeys; test: Evaluation of wake-promoting effects in cynomolgus monkeys (EEG/EMG/EOG); type: in vivo; conditions: for Wakefulness time (% of vehicle treatment): 10 mg/kg, p.o., at ZT12, 4 h after administration, male cynomolgus monkeys, Mean, n = 4-8, cross-over design
Experimental: The wake-promoting effects were evaluated by measuring the electroencephalogram (EEG), electromyogram (EMG) and electrooculogram (EOG) in cynomolgus monkeys. Under isoflurane anesthesia (1-5%, Pfizer Japan Inc., Tokyo, Japan), male cynomolgus monkeys (3-5 years old, Hamri Co., Ltd., Ibaraki, Japan) were surgically implanted with radio-telemetry transmitters (TL10M3-D70-EEE, Data Sciences International Inc., MN, USA). EEG leads were stereotaxically positioned at the parietal area and secured to the cranium with stainless-steel screws in contact with the dura. […] Bilateral EMG leads were implanted into the back cervical muscles. After the surgery, each monkey was given penicillin (100,000 units/head, i.m., Meiji Seika Pharma Co., Ltd., Tokyo, Japan), buprenorphine (0.02 mg/kg, i.m., Otsuka Pharmaceutical Co., Ltd., Tokyo, Japan) and prednisolone (1 mg/kg, s.c., Kyoritsu Seiyaku Co., Ltd., Tokyo, Japan) daily for one week. After at least a 1-month recovery period in home cages, the monkeys were habituated to the recording chamber (an acrylic cage 60W×55D×75H (cm)) located in a soundproof, electrically shielded room. After we confirmed that monkeys slept sufficiently in the experimental room, cortical EEG, EMG and EOG signals were recorded using Dataquest ART software (Data Sciences International Inc., MN, USA). The signals were semi automatically scored in 20 sec epochs by a sleep scoring system (SleepSign, Kissei Comtec Co., Ltd., Nagano, Japan). This preliminary scoring was visually inspected and corrected if necessary. Test compound (10 mg/kg, Table 4-1) suspended in 0.5% methylcellulose aqueous solution, or vehicle (i.e., 0.5% methylcellulose aqueous solution) was administered orally (p.o.) to monkeys at zeitgeber time 12 (ZT12) in a volume of 5 mL/kg body weight in a cross-over design. EEG, EMG and EOG recordings were performed for 4 h after the compound administration/treatments. The time spent in wakefulness for 4 h after administration (% of vehicle treatment) was calculated by using SleepSign. Test compound (1 mg/kg, Table 4-2) dissolved in a mixed solution comprising 5% DMSO, 5% Cremophor EL, 20% PEG400 and 70% soluplus (1% (w/v)), or vehicle (i.e., a mixed solution comprising 5% DMSO, 5% Cremophor EL, 20% PEG400 and 70% soluplus (1% (w/v))) was administered subcutaneously (s.c.) to monkeys at ZT12 in a volume of 0.5 mL/kg body weight in a pre-post design. EEG, EMG and EOG recordings were performed for 4 h after the compound administration/treatments. The time spent in wakefulness for 4 h after administration (% of vehicle treatment) was calculated by using SleepSign.

[3] = Evaluation of microsome stability in human; type: in vitro ADME; conditions: human liver microsomes 0.2 mg/mL, 1 μmol/L test compound, pH 7.4, NADPH-generating system, 15 and 30 min; read-out: Clearance (in vitro intrinsic metabolic clearance)
Experimental: Human liver microsomes were purchased from Xenotech, LLC (Lenexa, Kans.). An incubation mixture consisted of microsomes in 50 mmol/L KH2PO4—K2HPO4 phosphate buffer (pH 7.4) and 1 μmol/L test compound. The concentration of microsomal protein was 0.2 mg/mL. An NADPH-generating system (5 mmol/L MgCl2, 5 mmol/L glucose-6-phosphate, 0.5 mmol/L beta-NADP+ and 1.5 unit/mL glucose-6-phosphate dehydrogenase) was added to the incubation mixture with a half volume of the reaction mixture to initiate the enzyme reaction. The reaction was terminated 15 and 30 minutes after the initiation of the reaction by mixing the reaction mixture with acetonitrile, followed by centrifugation at 2500 rpm for 10 min. The supernatant was subjected to LC/MS/MS analysis. The metabolic velocity was calculated as the slope of the concentration-time plot. The in vitro intrinsic metabolic clearance was calculated by dividing initial metabolic velocity by the test compound concentration in the incubation mixture.

OX2R agonist activity (3 μM, %) [1] [%] | microsomal CLint at 1 μmol/L [3] [µL/min/mg] | SMILES | Wakefulness time (% of vehicle treatment) [2] | response vs control in vivo at 1 mg/kg ([2]; Macaca fascicularis, sc, 4 h, 1 mg/kg, s.c., cynomolgus monkeys, administered at ZT12, read-out: Wakefulness time (% of vehicle treatment) (Mean, n = 1-2)) [%]
112 | 23 | CCS(=O)(=O)N[C@H]1CCN(C(=O)C(C)(C)O)[C@H]1Cc1cccc(-c2cc(F)cc(F)c2)c1F [Example 484, N-((2S,3S)-1-(2-hydroxy-2-methyl-propanoyl)-2-((2,3′,5′-trifluorobi-phenyl-3-yl)methyl)pyrrolidin-3-yl)ethanesulfonamide] | 492.32 % of vehicle treatment | 
103 | 6 | CC(C)(O)C(=O)N1CC[C@H](NS(C)(=O)=O)[C@@H]1Cc1cccc(-c2cc(F)cc(F)c2)c1F [Example 483, N-((2S,3S)-1-(2-hydroxy-2-methyl-propanoyl)-2-((2,3′,5′-trifluorobi-phenyl-3-yl)methyl)pyrrolidin-3-yl)methanesulfonamide] | 359.35 % of vehicle treatment | 
110 | 26 | CCS(=O)(=O)N[C@H]1CCN(C(=O)C(C)(C)O)[C@H]1Cc1cccc(-c2cccc(F)c2)c1F [Example 482, N-((2S,3S)-2-((2,3′-difluorobi-phenyl-3-yl)methyl)-1-(2-hydroxy-2-methylpropanoyl)pyrrolidin-3-yl)ethanesulfonamide] | 280.82 % of vehicle treatment | 
107 | 78 | CC(C)(O)C(=O)N1CC[C@H](NS(=O)(=O)C2(F)CC2)[C@@H]1Cc1cccc(-c2cccc(F)c2)c1F [Example 450, N-[(2S,3S)-2-[(2,3′-difluoro[1,1′-biphenyl]-3-yl)methyl]-1-(2-hydroxy-2-methylpropanoyl)pyrrolidin-3-yl]-1-fluorocyclopropane-1-sulfonamide] |  | 243
